Reference: ChEMBL document CHEMBL1201862, “PubChem BioAssay data set” (2004)
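Growth conditions: 96-well plates. Treatment: test compound, 48 hours, 5 concentrations. Analysis: linear interpolation between bracketing concentrations; unreached endpoints set to highest concentration. GI50: concentration for 50% inhibition of growth.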 Active and inactive are the calls of the source. Cut-off read from the data, not from the text of the source: active = GI50 up to about 1.1 µM and inactive = higher.

How the values were obtained:
Test in all cases: inhibition of tumour cell growth, NCI panel, 48 h
[1] = test system: NCI-H23
[2] = test system: A549
[3] = test system: NCI-H522
[4] = test system: ACHN
[5] = test system: A498
[6] = test system: BT-549
[7] = test system: HOP-62
[8] = test system: COLO 205
[9] = test system: MDA-MB-231
[10] = test system: MOLT-4
[11] = test system: SF-268
[12] = test system: MCF7
[13] = test system: M14
[14] = test system: HT-29
[15] = test system: SF-295
[16] = test system: Hs-578T
[17] = test system: NCI-H460
[18] = test system: SN12C
[19] = test system: OVCAR-3

Structure (SMILES) | GI50 [1] | GI50 [2] | GI50 [3] | GI50 [4] | GI50 [5] | GI50 [6] | GI50 [7] | GI50 [8] | GI50 [9] | GI50 [10] | GI50 [11] | GI50 [12] | GI50 [13] | GI50 [14] | GI50 [15] | GI50 [16] | GI50 [17] | GI50 [18] | GI50 [19]
CC(C)(C)OCC1NC(=O)[C@@H]2Cc3c([nH]c4ccccc34)C(c3ccccc3)N2C1=O (stereo not given in full) | > 50 µM (inactive) | > 50 µM (inactive) | > 50 µM (inactive) | > 50 µM (inactive) | > 50 µM (inactive) | > 50 µM (inactive) | > 50 µM (inactive) | > 50 µM (inactive) | > 50 µM (inactive) | 16.2 µM (inactive) | > 50 µM (inactive) | > 50 µM (inactive) | > 50 µM (inactive) | > 50 µM (inactive) | > 50 µM (inactive) | > 50 µM (inactive) | > 50 µM (inactive) | > 50 µM (inactive) | > 50 µM (inactive)
COc1cccc2c1Cc1cc(-c3ccccc3)[n+](C)n1-2 | 9.77 µM (inactive) | 27.9 µM (inactive) | 4.93 µM (inactive) | 19.2 µM (inactive) | 31.5 µM (inactive) | 22.5 µM (inactive) | 42.3 µM (inactive) | 1.38 µM (inactive) | 13.2 µM (inactive) | 2.92 µM (inactive) | 19.9 µM (inactive) | 2.3 µM (inactive) | 8.43 µM (inactive) | 3.54 µM (inactive) | 20.3 µM (inactive) | 25.1 µM (inactive) | 14.5 µM (inactive) | 8.85 µM (inactive) | 2.92 µM (inactive)
COC(=O)c1ccc(NCC2=CC(=O)c3ccccc3C2=O)cc1 | 14.5 µM (inactive) | 22.5 µM (inactive) | 13.2 µM (inactive) | 13.9 µM (inactive) | 24.2 µM (inactive) | 20 µM (inactive) | 16.2 µM (inactive) | 13.3 µM (inactive) | 2.99 µM (inactive) | 3.01 µM (inactive) | 24.8 µM (inactive) | 18.4 µM (inactive) | 17.8 µM (inactive) | 25.7 µM (inactive) | 16.9 µM (inactive) | 28.6 µM (inactive) | 18.2 µM (inactive) | 21.8 µM (inactive) | 12.9 µM (inactive)
Nc1ccc(Oc2ccc(C34CC5CC(C3)CC(c3ccc(Oc6ccc(N)cc6C(F)(F)F)cc3)(C5)C4)cc2)c(C(F)(F)F)c1 | 17.7 µM (inactive) | 19.1 µM (inactive) | 14.4 µM (inactive) | 32.9 µM (inactive) | 18.3 µM (inactive) | 21.9 µM (inactive) | 18.2 µM (inactive) | 19.1 µM (inactive) | 15.2 µM (inactive) | 35.7 µM (inactive) | 17.4 µM (inactive) | 13.4 µM (inactive) | 16.9 µM (inactive) | 17.2 µM (inactive) | 25.3 µM (inactive) | 17.1 µM (inactive) | 18.4 µM (inactive) | 31.1 µM (inactive) | 17.9 µM (inactive)
CC(O)CN1c2ccccc2Sc2ccccc21 (stereo not given) | > 100 µM (inactive) | > 100 µM (inactive) | > 100 µM (inactive) | > 100 µM (inactive) | > 100 µM (inactive) | > 100 µM (inactive) | > 100 µM (inactive) | > 100 µM (inactive) | > 100 µM (inactive) | > 100 µM (inactive) | > 100 µM (inactive) | > 100 µM (inactive) | > 100 µM (inactive) | > 100 µM (inactive) | > 100 µM (inactive) | > 100 µM (inactive) | > 100 µM (inactive) | > 100 µM (inactive) | > 100 µM (inactive)
O=C(O)c1ccccc1CC(Cc1ccccc1)C(=O)O (stereo not given) | > 100 µM (inactive) | > 100 µM (inactive) | > 100 µM (inactive) | > 100 µM (inactive) | > 100 µM (inactive) | > 100 µM (inactive) | > 100 µM (inactive) | > 100 µM (inactive) | > 100 µM (inactive) | > 100 µM (inactive) | 97.1 µM (inactive) | > 10 µM (inactive) | > 100 µM (inactive) | > 100 µM (inactive) | > 100 µM (inactive) | > 100 µM (inactive) | > 100 µM (inactive) | > 100 µM (inactive) | > 100 µM (inactive)
CC(=O)Nc1n[n+]([O-])c2cc(C)ccc2[n+]1[O-] | 2.19 µM (inactive) | 2.44 µM (inactive) | 2.05 µM (inactive) | 2.33 µM (inactive) | 5.22 µM (inactive) | 3.39 µM (inactive) | 2.89 µM (inactive) | 2.37 µM (inactive) | 6.81 µM (inactive) | 1.49 µM (inactive) | 3.57 µM (inactive) | 0.296 µM (active) | 2.42 µM (inactive) | 2.52 µM (inactive) | 2.5 µM (inactive) | 6.61 µM (inactive) | 0.378 µM (active) | 3.05 µM (inactive) | 2.4 µM (inactive)
COC(=O)[C@H]1[C@@H](O)[C@@]2(O)c3c(OC)cc(OC)cc3O[C@@]2(c2ccc3c(c2)OCO3)[C@@H]1c1ccccc1 | 0.00617 µM (active) | < 0.005 µM (active) | < 0.0122 µM (active) | < 0.005 µM (active) | 0.0144 µM (active) | 0.0219 µM (active) | 0.00879 µM (active) | 0.00736 µM (active) | 0.0136 µM (active) | < 0.005 µM (active) | 0.0117 µM (active) | < 0.005 µM (active) | 0.00603 µM (active) | < 0.005 µM (active) | 0.00578 µM (active) | 0.0146 µM (active) | < 0.005 µM (active) | 0.0076 µM (active) | 0.0225 µM (active)
Cc1nc(C)c(N2CCN(C(=O)O)CC2)c(O)n1 | > 100 µM (inactive) | > 100 µM (inactive) | > 100 µM (inactive) | > 100 µM (inactive) | > 100 µM (inactive) | > 100 µM (inactive) | > 100 µM (inactive) | > 100 µM (inactive) | > 100 µM (inactive) | > 100 µM (inactive) | > 100 µM (inactive) | > 100 µM (inactive) | > 100 µM (inactive) | > 100 µM (inactive) | > 100 µM (inactive) | > 100 µM (inactive) | > 100 µM (inactive) | > 100 µM (inactive) | > 100 µM (inactive)
O=C(O)[C@H](CCC[C@H]1C(=O)O[C@H](c2ccccc2)[C@H](c2ccccc2)N1C(=O)OCc1ccccc1)N[C@@H](c1ccccc1)[C@H](O)c1ccccc1 | 28.4 µM (inactive) | > 100 µM (inactive) | 15.5 µM (inactive) | > 100 µM (inactive) | 28 µM (inactive) | 27 µM (inactive) | 19 µM (inactive) | 30.8 µM (inactive) | 17.7 µM (inactive) | 24.3 µM (inactive) | 33.7 µM (inactive) | 28.3 µM (inactive) | > 100 µM (inactive) | 28.6 µM (inactive) | 28.2 µM (inactive) | 25.4 µM (inactive) | 34.5 µM (inactive) | 20.7 µM (inactive) | 23.7 µM (inactive)
COc1cc2c3cc1Oc1c(O)c(OC)cc4c1[C@H](Cc1ccc(cc1)Oc1cc(ccc1O)C[C@H]3N(C)CC2)N(C)CC4 | 22.4 µM (inactive) | 15.2 µM (inactive) | 11 µM (inactive) | 19.4 µM (inactive) | 16.7 µM (inactive) | 12.9 µM (inactive) | 16.4 µM (inactive) | 13.8 µM (inactive) | 10.3 µM (inactive) | 8.41 µM (inactive) | 14.4 µM (inactive) | 13.3 µM (inactive) | 2.25 µM (inactive) | 3.84 µM (inactive) | 12.4 µM (inactive) | 20 µM (inactive) | 8.99 µM (inactive) | 4.17 µM (inactive) | 10.2 µM (inactive)
COC(=O)C(CNC(=O)/C=C/c1ccc(OC)c(OC)c1)NC(=O)/C=C/c1ccc(OC)c(OC)c1 (stereo not given) | > 100 µM (inactive) | > 100 µM (inactive) | > 100 µM (inactive) | > 100 µM (inactive) | > 100 µM (inactive) | > 100 µM (inactive) | > 100 µM (inactive) | > 100 µM (inactive) | > 100 µM (inactive) | 77.1 µM (inactive) | > 100 µM (inactive) | > 100 µM (inactive) | > 100 µM (inactive) | > 100 µM (inactive) | > 100 µM (inactive) | > 100 µM (inactive) | 45.2 µM (inactive) | > 100 µM (inactive) | 66.5 µM (inactive)
Cc1ccc(NC(Nc2ccc(C)cc2C)=C(/C=C(\Cl)[N+](=O)[O-])[N+](=O)[O-])c(C)c1 | 5.94 µM (inactive) | 17.3 µM (inactive) | 2.37 µM (inactive) | 2.97 µM (inactive) | 18.2 µM (inactive) | 3.46 µM (inactive) | 17.7 µM (inactive) | 2.18 µM (inactive) | 4.94 µM (inactive) | 1.53 µM (inactive) | 4.82 µM (inactive) | 2.83 µM (inactive) | 2.21 µM (inactive) | 5.43 µM (inactive) | 16.6 µM (inactive) | 6.71 µM (inactive) | 16.6 µM (inactive) | 4.53 µM (inactive) | 2.72 µM (inactive)
COC(=O)n1c(=O)nc2c3c(ncn21)Oc1c(c(-c2ccccc2)nn1-c1ccccc1)C3c1ccc(Cl)cc1 (stereo not given) | 2.03 µM (inactive) | 1.77 µM (inactive) | 1.5 µM (inactive) | 1.82 µM (inactive) | 2.03 µM (inactive) | 3.87 µM (inactive) | 1.72 µM (inactive) | 1.45 µM (inactive) | 1.67 µM (inactive) | – | 1.3 µM (inactive) | 1.69 µM (inactive) | 1.44 µM (inactive) | 1.56 µM (inactive) | 1.67 µM (inactive) | 1.17 µM (inactive) | 1.65 µM (inactive) | 1.73 µM (inactive) | 1.42 µM (inactive)
